Laboratory results taken from patent US10654833B2, “ASK1 isoindolin-1-one inhibitors and methods of use thereof” (Hepatikos Therapeutics, LLC, priority 2018, dated 2020).
pIC50: −log10 of the molar value.

Target: recombinant human ASK1 protein (Homo sapiens (Human), UniProt Q99683)
Assay: ASK1 kinase activity inhibition assay (radiometric 33P incorporation into MBP)
Format: biochemical
Conditions: Table 3; 20 μM MBP, 10 μM 33P-ATP
Method: ASK1 Kinase Activity Inhibition Assay
Inhibition of ASK1 kinase activity was determined radiometrically using 33P substrate incorporation (Reaction Biology Corp., Malvern, Pa.). Briefly, recombinant human ASK1 protein, 20 μM substrate (myelin basic protein (MBP)), and compound (diluted from DMSO stock to give 1% final DMSO) were incubated in Base Reaction buffer (20 mM Hepes (pH 7.5), 10 mM MgCl2, 1 mM EGTA, 0.02% Brij35, 0.02 mg/mL BSA, 0.1 mM Na3VO4, 2 mM DTT, 1% DMSO) at room temperature for 20 minutes. The reaction was initiated by addition of 10 μM 33P-ATP (specific activity […]). The reaction was then allowed to proceed for 2 hours at room temperature. Upon reaction termination, the mixture was spotted on P81 exchange paper and kinase activity by incorporation of 33P into MBP substrate was detected by filter-binding method.

Chain of recombinant human ASK1 protein (Q99683 whole entry): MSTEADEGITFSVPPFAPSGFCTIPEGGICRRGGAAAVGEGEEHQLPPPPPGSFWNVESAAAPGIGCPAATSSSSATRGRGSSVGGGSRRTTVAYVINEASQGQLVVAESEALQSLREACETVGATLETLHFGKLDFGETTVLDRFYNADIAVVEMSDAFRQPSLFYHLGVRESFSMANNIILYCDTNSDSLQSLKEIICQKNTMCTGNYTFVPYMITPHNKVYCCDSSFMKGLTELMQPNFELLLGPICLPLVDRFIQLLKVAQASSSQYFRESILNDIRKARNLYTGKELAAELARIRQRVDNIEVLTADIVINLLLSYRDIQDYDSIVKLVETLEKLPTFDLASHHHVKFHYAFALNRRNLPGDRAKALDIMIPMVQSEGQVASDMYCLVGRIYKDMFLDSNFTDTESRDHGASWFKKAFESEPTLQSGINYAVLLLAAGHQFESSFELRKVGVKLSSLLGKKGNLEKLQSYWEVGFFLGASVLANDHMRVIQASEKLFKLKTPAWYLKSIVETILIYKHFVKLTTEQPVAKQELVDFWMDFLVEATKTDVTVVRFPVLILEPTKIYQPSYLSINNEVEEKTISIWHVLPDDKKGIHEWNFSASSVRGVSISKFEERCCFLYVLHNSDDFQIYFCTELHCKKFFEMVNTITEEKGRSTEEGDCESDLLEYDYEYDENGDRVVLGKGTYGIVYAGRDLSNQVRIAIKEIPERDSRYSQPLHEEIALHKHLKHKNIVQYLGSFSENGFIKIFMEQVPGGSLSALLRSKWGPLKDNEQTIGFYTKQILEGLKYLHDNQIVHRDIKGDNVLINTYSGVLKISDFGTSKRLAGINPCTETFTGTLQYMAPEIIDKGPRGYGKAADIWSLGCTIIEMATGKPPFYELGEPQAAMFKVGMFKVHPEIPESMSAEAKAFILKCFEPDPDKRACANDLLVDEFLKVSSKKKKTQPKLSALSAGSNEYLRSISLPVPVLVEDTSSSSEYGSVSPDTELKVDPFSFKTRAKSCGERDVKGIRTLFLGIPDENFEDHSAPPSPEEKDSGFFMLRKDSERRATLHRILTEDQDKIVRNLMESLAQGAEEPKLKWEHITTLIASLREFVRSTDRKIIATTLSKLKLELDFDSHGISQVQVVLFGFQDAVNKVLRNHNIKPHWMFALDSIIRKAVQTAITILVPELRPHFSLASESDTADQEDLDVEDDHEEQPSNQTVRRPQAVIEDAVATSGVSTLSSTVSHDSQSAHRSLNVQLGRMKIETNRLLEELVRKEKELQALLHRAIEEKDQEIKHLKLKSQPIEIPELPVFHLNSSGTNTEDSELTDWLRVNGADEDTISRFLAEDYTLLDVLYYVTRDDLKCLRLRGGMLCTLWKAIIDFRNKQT

Compound	pIC50
CC(C)n1cnnc1-c1cccc(N2Cc3ccc(-c4ccc(CCC(=O)O)cc4)cc3C2=O)n1 [Compound 90, 3-(4-(2-(6-(4-Isopropyl-4H-1,2,4-triazol-3-yl)pyridin-2-yl)-3-oxoisoindolin-5-yl)phenyl)propanoic Acid]	8.36
CC(C)n1cnnc1-c1cccc(N2Cc3ccc(-c4cc(C(=O)O)ccc4CO)cc3C2=O)n1 [Compound 59, 4-(Hydroxymethyl)-3-(2-(6-(4-isopropyl-4H-1,2,4-triazol-3-yl)pyridin-2-yl)-3-oxoisoindolin-5-yl)benzoic Acid]	8.28
CC(C)n1cnnc1-c1cccc(N2Cc3ccc(-c4cc(C#N)cc(C(=O)O)c4)cc3C2=O)n1 [Compound 13, 3-Cyano-5-(2-(6-(4-isopropyl-4H-1,2,4-triazol-3-yl)pyridin-2-yl)-3-oxoisoindolin-5-yl) benzoic Acid]	8.80
CC(C)n1cnnc1-c1cccc(N2Cc3ccc(-c4ccc(C(=O)O)cc4O)cc3C2=O)n1 [Compound 69, 3-Hydroxy-4-(2-(6-(4-isopropyl-4H-1,2,4-triazol-3-yl)pyridin-2-yl)-3-oxoisoindolin-5-yl)benzoic Acid]	8.18
Cc1c(C(=O)O)cc(N)cc1-c1ccc2c(c1)C(=O)N(c1cccc(-c3nncn3C(C)C)n1)C2 [Compound 68, 5-Amino-3-(2-(6-(4-isopropyl-4H-1,2,4-triazol-3-yl)pyridin-2-yl)-3-oxoisoindolin-5-yl)-2-methylbenzoic Acid]	7.91
CC(C)n1cnnc1-c1cccc(N2Cc3ccc(-c4ccc(C(=O)O)c(CO)c4)cc3C2=O)n1 [Compound 83, 2-(Hydroxymethyl)-4-(2-(6-(4-isopropyl-4H-1,2,4-triazol-3-yl)pyridin-2-yl)-3-oxoisoindolin-5-yl)benzoic Acid]	8.21
CC(C)n1cnnc1-c1cccc(N2Cc3ccc(-c4ccc(C(=O)O)cc4)cc3C2=O)n1 [Compound 55, 4-(2-(6-(4-Isopropyl-4H-1,2,4-triazol-3-yl)pyridin-2-yl)-3-oxoisoindolin-5-yl)benzoic Acid]	8.27
CC(C)n1cnnc1-c1cccc(N2Cc3ccc(-c4ccc(C(=O)O)c(S(C)(=O)=O)c4)cc3C2=O)n1 [Compound 77, 4-(2-(6-(4-Isopropyl-4H-1,2,4-triazol-3-yl)pyridin-2-yl)-3-oxoisoindolin-5-yl)-2-(methylsulfonyl)benzoic Acid]	8.55
O=C(O)c1ccc(F)c(-c2ccc3c(c2)C(=O)N(c2cccc(-c4nncn4C4CC4)n2)C3)c1 [Compound 93, 3-(2-(6-(4-Cyclopropyl-4H-1,2,4-triazol-3-yl)pyridin-2-yl)-3-oxoisoindolin-5-yl)-4-fluorobenzoic Acid]	7.91
CC(C)n1cnnc1-c1cccc(N2Cc3ccc(-c4ccc5cc(C(=O)O)[nH]c5c4)cc3C2=O)n1 [Compound 61, 6-(2-(6-(4-Isopropyl-4H-1,2,4-triazol-3-yl)pyridin-2-yl)-3-oxoisoindolin-5-yl)-1H-indole-2-carboxylic Acid]	8.29
CC(C)n1cnnc1-c1cccc(N2Cc3ccc(-c4ccc(Cl)c(C(=O)O)c4)cc3C2=O)n1 [Compound 60, 2-Chloro-5-(2-(6-(4-isopropyl-4H-1,2,4-triazol-3-yl)pyridin-2-yl)-3-oxoisoindolin-5-yl)benzoic Acid]	8.30
Cc1cc(C(=O)O)ccc1-c1ccc2c(c1)C(=O)N(c1cccc(-c3nncn3C(C)C)n1)C2 [Compound 74, 4-(2-(6-(4-Isopropyl-4H-1,2,4-triazol-3-yl)pyridin-2-yl)-3-oxoisoindolin-5-yl)-3-methylbenzoic Acid]	8.24
CC(C)n1cnnc1-c1cccc(N2Cc3ccc(-c4ccc(Cl)cc4C(=O)O)cc3C2=O)n1 [Compound 65, 5-Chloro-2-(2-(6-(4-isopropyl-4H-1,2,4-triazol-3-yl)pyridin-2-yl)-3-oxoisoindolin-5-yl)benzoic Acid]	7.46
CC(C)n1cnnc1-c1cccc(N2Cc3ccc(-c4ccc(C(=O)O)c(F)c4)cc3C2=O)n1 [Compound 67, 2-Fluoro-4-(2-(6-(4-isopropyl-4H-1,2,4-triazol-3-yl)pyridin-2-yl)-3-oxoisoindolin-5-yl)benzoic Acid]	8.27
CC(C)n1cnnc1-c1cccc(N2Cc3ccc(-c4cc(F)cc(C(=O)O)c4F)cc3C2=O)n1 [Compound 97, 2,5-Difluoro-3-(2-(6-(4-isopropyl-4H-1,2,4-triazol-3-yl)pyridin-2-yl)-3-oxoisoindolin-5-yl) Benzoic Acid]	8.33
CC(C)(C(=O)O)c1ccc(-c2ccc3c(c2)C(=O)N(c2cccc(-c4nncn4C4CC4)n2)C3)cc1 [Compound 53, 2-(4-(2-(6-(4-cyclopropyl-4H-1,2,4-triazol-3-yl)pyridin-2-yl)-3-oxoisoindolin-5-yl)phenyl)-2-methylpropanoic acid]	8.59
Cc1ccc(C(=O)O)cc1-c1ccc2c(c1)C(=O)N(c1cccc(-c3nncn3C(C)C)n1)C2 [Compound 11, 3-(2-(6-(4-Isopropyl-4H-1,2,4-triazol-3-yl)pyridin-2-yl)-3-oxoisoindolin-5-yl)-4-methylbenzoic Acid]	8.23
CC(C(=O)O)c1ccc(-c2ccc3c(c2)C(=O)N(c2cccc(-c4nncn4C(C)C)n2)C3)cc1 (centres unmarked) [Compound 85, 2-(4-(2-(6-(4-Isopropyl-4H-1,2,4-triazol-3-yl)pyridin-2-yl)-3-oxoisoindolin-5-yl)phenyl)propanoic Acid]	8.44
Cc1c(C(=O)O)cccc1-c1ccc2c(c1)C(=O)N(c1cccc(-c3nncn3C(C)C)n1)C2 [Compound 94, 3-(2-(6-(4-Isopropyl-4H-1,2,4-triazol-3-yl)pyridin-2-yl)-3-oxoisoindolin-5-yl)-2-methylbenzoic Acid]	8.16
CC(C)n1cnnc1-c1cccc(N2Cc3ccc(-c4cc(C(=O)O)ccc4C#N)cc3C2=O)n1 [Compound 14, 4-Cyano-3-(2-(6-(4-isopropyl-4H-1,2,4-triazol-3-yl)pyridin-2-yl)-3-oxoisoindolin-5-yl) Benzoic Acid]	7.81
Cc1cc(-c2ccc3c(c2)C(=O)N(c2cccc(-c4nncn4C(C)C)n2)C3)ccc1C(=O)O [Compound 73, 4-(2-(6-(4-isopropyl-4H-1,2,4-triazol-3-yl)pyridin-2-yl)-3-oxoisoindolin-5-yl)-2-methyl]	7.84
O=C(O)c1cccc(-c2ccc3c(c2)C(=O)N(c2cccc(-c4nncn4C4CC4)n2)C3)c1 [Compound 20, 3-(2-(6-(4-Cyclopropyl-4H-1,2,4-triazol-3-yl)pyridin-2-yl)-3-oxoisoindolin-5-yl)benzoic Acid]	8.28

More lines, now with the values ahead:

pIC50	Compound
8.19	CC(C)n1cnnc1-c1cccc(N2Cc3ccc(-c4cc(-c5nn[nH]n5)ccc4F)cc3C2=O)n1 [Compound 111, 6-(2-Fluoro-5-(2H-tetrazol-5-yl)phenyl)-2-(6-(4-isopropyl-4H-1,2,4-triazol-3-yl)pyridin-2-yl)isoindolin-1-one]
8.39	CC(C)n1cnnc1-c1cccc(N2Cc3ccc(-c4ccc5nc(C(=O)O)sc5c4)cc3C2=O)n1 [Compound 121, 6-(2-(6-(4-Isopropyl-4H-1,2,4-triazol-3-yl)pyridin-2-yl)-3-oxoisoindolin-5-yl)benzo[d]thiazole-2-carboxylic Acid]
7.33	COC(=O)C(C)(C)c1cccc(-c2ccc3c(c2)C(=O)N(c2cccc(-c4nncn4C4CC4)n2)C3)c1 [Compound 104, Methyl 2-(3-(2-(6-(4-cyclopropyl-4H-1,2,4-triazol-3-yl)pyridin-2-yl)-3-oxoisoindolin-5-yl)phenyl)-2-methylpropanoate]
8.20	COC(=O)c1cccc(-c2ccc3c(c2)C(=O)N(c2cccc(-c4nncn4C(C)C)n2)C3)c1 [Compound 99, Methyl 3-(2-(6-(4-isopropyl-4H-1,2,4-triazol-3-yl)pyridin-2-yl)-3-oxoisoindolin-5-yl)benzoate]
8.28	CC(C)n1cnnc1-c1cccc(N2Cc3ccc(-c4cccc(CCC(=O)O)c4)cc3C2=O)n1 [Compound 107, 3-(3-(2-(6-(4-Isopropyl-4H-1,2,4-triazol-3-yl)pyridin-2-yl)-3-oxoisoindolin-5-yl)phenyl) Propanoic Acid]
8.18	COC(=O)c1ccc(F)c(-c2ccc3c(c2)C(=O)N(c2cccc(-c4nncn4C(C)C)n2)C3)c1 [Compound 100, Methyl 4-fluoro-3-(2-(6-(4-isopropyl-4H-1,2,4-triazol-3-yl)pyridin-2-yl)-3-oxoisoindolin-5-yl)benzoate]
7.17	Cc1cc(C(=O)O)c(C#N)c(-c2ccc3c(c2)C(=O)N(c2cccc(-c4nncn4C(C)C)n2)C3)n1 [Compound 118, 3-Cyano-2-(2-(6-(4-isopropyl-4H-1,2,4-triazol-3-yl)pyridin-2-yl)-3-oxoisoindolin-5-yl)-6-methylisonicotinic Acid]
8.46	CC(C)n1cnnc1-c1cccc(N2Cc3ccc(-c4ccc5ncc(C(=O)O)n5c4)cc3C2=O)n1 [Compound 123, 6-(2-(6-(4-Isopropyl-4H-1,2,4-triazol-3-yl)pyridin-2-yl)-3-oxoisoindolin-5-yl)imidazo [1,2-a]pyridine-3-carboxylic Acid]
8.31	Cc1c(F)cc(C(=O)O)cc1-c1ccc2c(c1)C(=O)N(c1cccc(-c3nncn3C(C)C)n1)C2 [Compound 98, 3-Fluoro-5-(2-(6-(4-isopropyl-4H-1,2,4-triazol-3-yl)pyridin-2-yl)-3-oxoisoindolin-5-yl)-4-methylbenzoic Acid]
8.18	CC(C)n1cnnc1-c1cccc(N2Cc3ccc(N4CCC(CC(=O)O)CC4)cc3C2=O)n1 [Compound 129, 2-(1-(2-(6-(4-Isopropyl-4H-1,2,4-triazol-3-yl)pyridin-2-yl)-3-oxoisoindolin-5-yl)piperidin-4-yl)acetic Acid]
